Results reported in patent US6881584B1, “Infrared thermography” (SmithKline Beecham Corporation, priority 1998, dated 2005).

Key:
C3H10T1/2 adipocytes [1] = assay: Infrared thermography of thermogenesis in cultured adipocytes (β-AR-agonists); type: cell-based; settings: for stimulation of thermogenesis: C3H10T1/2 adipocytes; for EC50: adipocytes, infrared thermography, dose response, read-out: EC50 (nM) Thermogenesis
Procedure: (§1) Human subcutaneous adipocytes were purchased from Zen-Bio, Inc. (Research Triangle Park, N.C.). C3H10T1/2 clone 8 fibroblasts were differentiated into adipocytes as previously described (Lenhard et al, Biochem. Pharmacol. 54:801-808 (1997), Paulik and Lenhard, Cell Tissue Res. 290:79-87 (1997)). After 7 days in culture, triglyceride accumulation was determined by adding lipoprotein lipase and GPO-Trinder reagent (assay kit 337-B, Sigma Diagnostics, St. Louis, Mo.) to the cells (50 μl/cm^2) and incubating the lysates at 37° C. for 2 hours. The optical density was measured using a spectrophotometer set at a wavelength of 540 nm. Lipolysis was measured as previously described (Lenhard et al, Biochem. Pharmacol. 54:801-808 (1997)).
Heat generation was measured using a Stirling cooled Agema Thermovision 900 Infrared System AB (Marietta, Ga.) equipped with a SW Scanner and 40°×25° lens which detects a 2-5.4 micron spectral response. […] The focal distance was 6 cm. Images were captured using a recurs function set at 16 or an averaging function set at 32. The data was analyzed using OS-9 advanced systems and ERIKA 2.00 software according to the manufacturer's specifications (FLIR Infrared Systems AB, Danderyd, Sweden). Thermography of adipocytes was performed by maintaining the ambient temperature of the cultured cells at 37±0.02° C. using a Queue Systems Inc. (Parkersburg, W.Va.) incubator, model QWJ500SABA. Spectral analysis of yeast was performed at 30±0.02° C. using the same incubator system. After treating the cells with experimental agents (e.g., rotenone etc.), the temperature was equilibrated for 10 minutes in the incubator before measuring real time thermogenesis for all microtiter plate applications. Various color scales in the visible wavelength were used to depict the temperature fluctuations of the recorded images. Although temperature scales are constant, the color scale images are variable and can be adjusted with level and span controls.
The β3-AR-agonists are candidate therapeutic agents for the treatment of diabetes and obesity. Although, the mechanism of action for these agents is thought to involve increased metabolic rate (Scarpace, Ann. N.Y. Acad. Sci. 813:111-116 (1997)), it has yet to be shown that β-AR-agonists increase heat output by adipocytes. Therefore, it was determined whether infrared imaging could be used to monitor the effects of β-AR-agonists on thermogenesis in cultured adipocytes.
(§2) As a control, the effects of β-AR-agonists on lipolysis was also measured. […] In general, this expands to measuring thermogenic activity of both catabolic and anabolic mediated-effects of potential drug candidates.

human adipocytes = assay: Infrared thermography of human adipocytes in 96-well plates; type: cell-based; settings: dose response, relative to untreated cells
Procedure: Heat generation was measured using a Stirling cooled Agema Thermovision 900 Infrared System AB (Marietta, Ga.) equipped with a SW Scanner and 40°×25° lens which detects a 2-5.4 micron spectral response. […] The focal distance was 6 cm. Images were captured using a recurs function set at 16 or an averaging function set at 32. The data was analyzed using OS-9 advanced systems and ERIKA 2.00 software according to the manufacturer's specifications (FLIR Infrared Systems AB, Danderyd, Sweden). Thermography of adipocytes was performed by maintaining the ambient temperature of the cultured cells at 37±0.02° C. using a Queue Systems Inc. (Parkersburg, W.Va.) incubator, model QWJ500SABA. […] After treating the cells with experimental agents (e.g., rotenone etc.), the temperature was equilibrated for 10 minutes in the incubator before measuring real time thermogenesis for all microtiter plate applications. Various color scales in the visible wavelength were used to depict the temperature fluctuations of the recorded images. Although temperature scales are constant, the color scale images are variable and can be adjusted with level and span controls.

yeast = type: cell-based
Procedure: Heat generation was measured using a Stirling cooled Agema Thermovision 900 Infrared System AB (Marietta, Ga.) equipped with a SW Scanner and 40°×25° lens which detects a 2-5.4 micron spectral response. […] The focal distance was 6 cm. Images were captured using a recurs function set at 16 or an averaging function set at 32. The data was analyzed using OS-9 advanced systems and ERIKA 2.00 software according to the manufacturer's specifications (FLIR Infrared Systems AB, Danderyd, Sweden). […] Spectral analysis of yeast was performed at 30±0.02° C. using the same incubator system. After treating the cells with experimental agents (e.g., rotenone etc.), the temperature was equilibrated for 10 minutes in the incubator before measuring real time thermogenesis for all microtiter plate applications. Various color scales in the visible wavelength were used to depict the temperature fluctuations of the recorded images. Although temperature scales are constant, the color scale images are variable and can be adjusted with level and span controls.

C3H10T1/2 cells = assay: Infrared thermography of heat production in differentiating C3H10T1/2 cells (PPARγ agonists); type: cell-based; settings: Mus musculus, C3H 10T1/2, in the presence of insulin and 9-cis retinoic acid (FIG. 7), read-out: EC50(μM), thermogenesis and lipogenesis assays
Procedure: as §1
Heat generation was measured using a Stirling cooled Agema Thermovision 900 Infrared System AB (Marietta, Ga.) equipped with a SW Scanner and 40°×25° lens which detects a 2-5.4 micron spectral response. […] The focal distance was 6 cm. Images were captured using a recurs function set at 16 or an averaging function set at 32. The data was analyzed using OS-9 advanced systems and ERIKA 2.00 software according to the manufacturer's specifications (FLIR Infrared Systems AB, Danderyd, Sweden). […] Various color scales in the visible wavelength were used to depict the temperature fluctuations of the recorded images. […]

whole back = assay: Infrared thermography of drug-induced thermogenesis in humans; type: in vivo, human; settings: 60 minutes after 0.6-0.7 mg/kg
Procedure: The effect of ephedrine on thermogenesis in two human subjects was detected by infrared Imaging 60 minutes after treatment with ephedrine at a dose of 0.6-0.7 mg/kg. […] Thus, infrared thermography can be used as a non-invasive surrogate assay to evaluate the efficacy, potency, pharmacokinetics, pharmocodynamics of drugs in clinical studies.

[2] = system: interscapular brown adipose tissue (IBAT); assay: IBAT thermogenesis in ob/ob mice, shaved or skin replaced with IR transparent adhesive; type: in vivo; settings: 0.01-1 mg/kg i.g., 1 hour
Procedure: FIG. 28. Interscapular brown adipose tissue (IBAT) thermogenesis in ob/ob mice 1 hour after treatment with the […]-adrenoceptor agonist BRL37344 detected by IR thermography. Ten week old male ob/ob mice (Jackson Labs, Bar Harbor, Me.) were housed 5 animals/cage at 72° F. and 50% relative humidity with a 12 h light and dark cycle. They were fed chow diet (NIH R&M/Auto 6F-Ovals 5K67, PMI Feeds® Inc., Richmond, Ind.) and water ad libitum. Mice were dosed at 0.0, 0.01, 0.1, 0.3, or 1 mg/kg BRL37344 in water vehicle (0.25 mL i.g.; n=20 per dose). All animals were anesthetized with isofluorane and shaved to expose the area of interest prior to IR scanning. […] Images were recorded at 1 min intervals for 5 min with a frame averaging rate of 32 frames/sec. Acquired images were analyzed for average temperatures using an in-house image processing software application (Roboimage). Data are expressed as either average temperature/area or delta temperature/area (drug treated-vehicle treated).
The top panels show IR images of the interscapular regions of mice whose skin was removed and Bioclusive adhesive covering placed over the IBAT or mice who have been shaved only following treatment with BRL37344 at the doses indicated for 1 hour. Quantification of IR signal in the IBAT region is shown in the bottom panel. […]

intrascapular region = assay: Intrascapular thermogenesis in inbred mouse strains on high and low fat diets; type: in vivo, mice; settings: 1 mg/kg i.p., 60 min
Procedure: (§3) Male AKR/J, C57BL/6J, and SWR/J mice were purchased from 4-8 weeks of age from Jackson Laboratories (Bar Harbor, Me.). Mice were fed high and low fats diets containing high sucrose as defined by Surwit et al., (Metabolism 44(5):645-651 (1995)). After 14 weeks on these diets, the intrascapular fur was shaved, the animals were dosed (intraperitineal) with 1 mg/kg of BRL37344, and the animals were anesthetized with isofluorane. Nude mice (BALB/C) were 6-8 weeks old and were dosed with inhalant two times before thermal profiling. The Lewis rat strain (200-250 g) were used for both the MED and inflammation experiments. Infrared thermographic images and temperature calculations were recorded using an Agema Thermovision 900 Infrared System.
One environmental component that alters the metabolic rate in individuals with a genetic predisposition towards diabetes, dyslipidemia, or obesity is diet. It was unknown if thermography could be used to measure the effects of diet on drug-induced changes in heat production in animals with different genotypes. Thus, three different inbred strains of mice, AKR/J, C57BL/6J, and SWR/J, were maintained on high and low fat diets for 14 weeks before treating with the β3-adrenoceptor agonist, BRL37344. The heat produced in the intrascapular region was measured before and after 60 min treatment using infrared thermography. […] Thus, this technique may be used to select, rank order for the efficacy and potency of compounds with the, desired properties for a given environment or genetic background. Similarly, this technique can be used to identify, rank, and select animals and environmental factors with the desired properties for a given drug candidate.

limb inflammation = assay: PGPS arthritis model, limb thermogenesis; type: in vivo, rat
Procedure: as §3
Arthritis is a disease characterized by inflammation of the joints and can be treated with antiinflammatory agents. Because inflammatory responses are associated with increased thermogenesis at the site of the response, arthritis and the efficacy of arthritis drugs can be monitored by thermography. […] The other limb was not treated. […] Thus, infrared thermography is a useful tool for monitoring inflammatory responses and the efficacy of antiinflammatory agents as well as providing a method for screening, selecting and evaluating the effectiveness of drug candidates for treating arthritic indications.

C3H10T1/2 adipocytes [3] = assay: Lipolysis in adipocytes treated with β-AR-agonists; type: cell-based; settings: adipocytes, dose response; read-out: EC50 (nM) Lipolysis
Procedure: as §1, §2

## C[C@@H]1C[C@@H]([C@H](O)CC2CC(=O)NC(=O)C2)C(=O)[C@@H](C)C1 [cycloheximide]
C3H10T1/2 adipocytes [1]; 100 μM
  effect on β3-AR-mediated thermogenesis: had no effect

## N#CC(C#N)=NNc1ccc(OC(F)(F)F)cc1 [FCCP, carbonyl cyanide p-(trifluoromethoxy)phenylhydrazone]
Human adipocytes
  thermogenesis in human adipocytes: stimulated heat production
yeast
  thermogenesis in yeast: stimulated heat production

## O=C1NC(=O)C(Cc2ccc3c(c2)CC[C@H](Cc2ccccc2)O3)S1 (stereo partly shown) [englitazone]
C3H10T1/2 cells
  EC50: > 10 µM

## CN[C@@H](C)[C@H](O)c1ccccc1 [ephedrine]
Whole back; subject A
  Delta T: 0.63 °C
Whole back; subject B
  Delta T: 0.46 °C

## C[C@H](Cc1ccc(OCC(=O)O)cc1)NC[C@H](O)c1cccc(Cl)c1 [BRL37344]
[2]; shaved only
  IBAT thermogenesis: thermogenesis increased
[2]; skin removed (peelback) and Bioclusive adhesive
  IBAT thermogenesis: demonstrate a dose-response
Intrascapular region; AKR/J mice (obesity prone)
  thermogenic response, high vs low fat diet: greater thermogenic response to BRL37344 when fed the higher fat diet
Intrascapular region; C57BL/6J mice
  thermogenic response, high vs low fat diet: little difference in the thermogenic response
Intrascapular region; SWR/J mice (obesity resistant)
  thermogenic response, high vs low fat diet: greater thermogenic response when fed the lower fat diet

## C[C@]12C=CC(=O)C=C1CC[C@@H]1[C@@H]2[C@@H](O)C[C@@]2(C)[C@H]1CC[C@]2(O)C(=O)CO [prednisolone]
Limb inflammation; PGPS arthritis model, 6 mg/kg p.o.
  thermogenesis of arthritic limb after treatment: reverses the elevation in thermogenesis

## C[C@H](Cc1ccc2c(c1)OC(C(=O)[O-])(C(=O)[O-])O2)NC[C@H](O)c1cccc(Cl)c1.[Na+].[Na+] [CL316253]
C3H10T1/2 adipocytes [1]; 15 min vs 18 hours treatment
  thermogenesis versus treatment time: greater after 15 min than after 18 hours
C3H10T1/2 adipocytes [1]
  stimulation of thermogenesis: stimulated
  EC50: 8.9 nM
C3H10T1/2 adipocytes [1]; dose range 0.8-100 nM
  dose dependence of thermogenic effect: dose dependent thermogenic effect
C3H10T1/2 adipocytes [3]
  EC50: 7.9 nM

## COc1ccc(CCNCC(O)COc2ccc(O)c(O)c2)cc1OC (stereo not shown) [RO363]
C3H10T1/2 adipocytes [1]
  stimulation of thermogenesis: less effective than CL316243 or isoproterenol
  EC50: 956 nM
C3H10T1/2 adipocytes [3]
  EC50: 1000 nM

## CC[C@H]1/C=C/C=C/C[C@@H](C)[C@H](O)[C@@](C)(O)C(=O)[C@@H](C)[C@H](O)[C@@H](C)C(=O)[C@@H](C)[C@H](O)[C@@H](C)/C=C/C(=O)O[C@@H]2[C@H](C)[C@H](CC1)O[C@]1(CC[C@H](C)[C@H](C[C@@H](C)O)O1)[C@H]2C [Oligomycin]
C3H10T1/2 adipocytes [1]; Mus musculus, C3H 10T1/2
  EC50: 9.2 nM

## peptidoglycan polysaccharide [PGPS]
Limb inflammation; limb injected for two weeks
  thermogenesis of injected limb vs untreated limb: higher level of thermogenesis in the treated limb than in the untreated limb
